We go through 30 compounds from patent US10472346B2, “Potent gamma-secretase modulators” (The General Hospital Coporation, priority 2014, dated 2019).

Each structure is given as a SMILES string.

The assay deals with Aβ42. The assay is described as follows: Aβ42 IC50 assay (SHSYSY-APP cell-based screening, UCSD sandwich Aβ42 ELISA). From the text: FIG. 8: Representative concentration response curves of Compound 1 using our primary and orthogonal medium throughput SHSYSY-APP cell-based screening assays (10). Compounds are first screened two times in triplicate in our UCSD sandwich Aβ42 ELISA on sequential days and the average of the two assays must be within 3-fold of each other before being entered into the CDD relational database. The UCSD sandwich ELISA assay can easily handle 20 compounds per week. Compounds with Aβ42 IC50 values <100 nM continue through the testing funnel. The Z′ score and the % CV for the UCSD Aβ42 sandwich ELISA assay are 0.8 and 4, respectively. For the Meso Scale triplex assay the Z′ scores are 0.7, 0.9 and 0.6 Aβ42, Aβ40 and Aβ38, respectively and the % CV's are 7, 2 and 1 for Aβ42, Aβ40 and Aβ38, respectively. Aβ total peptides are measured using a sandwich ELISA.
Tabular Results of A1142 Assays Conducted on Compounds of Examples 5-102. Assays are Aβ42 IC50 (nM).
In general terms: An ELISA detects its analyte on a solid surface through an enzyme-linked reagent.
As a reminder, the IC50 is the concentration at which inhibition is half-maximal. Low readings indicate greater potency, high ones weaker potency. As to `COc1cccc([C@H](C)Nc2nnc(-c3ccc(-n4cnc(C)c4)c(OC)n3)cc2C)c1` [Example 44, (S)-6-(6-methoxy-5-(4-methyl-1H-imidazol-1-yl)pyridin-2-yl)-N-(1-(3-methoxyphenyl)ethyl)-4-methylpyridazin-3-amine], the IC50 was 10.5 nM.

The compound `COc1cc([C@H](C)Nc2nnc(-c3ccc(-n4cnc(C)c4)c(OC)n3)cc2C)ccc1F` [Example 47, (S)—N-(1-(4-fluoro-3-methoxyphenyl)ethyl)-6-(6-methoxy-5-(4-methyl-1H-imidazol-1-yl)pyridin-2-yl)-4-methylpyridazin-3-amine] returned an IC50 of 15 nM.

Compound `COc1nc(-c2cc(C)c(N[C@@H](C)c3cccc(C)c3)nn2)ccc1-n1cnc(C)c1` [Example 48, (S)-6-(6-methoxy-5-(4-methyl-1H-imidazol-1-yl)pyridin-2-yl)-4-methyl-N-(1-(m-tolyl)ethyl)pyridazin-3-amine] returned an IC50 of 6.3 nM.

Compound `COc1nc(-c2cc(C)c(N[C@@H](C)c3cccc(C(F)(F)F)c3)nn2)ccc1-n1cnc(C)c1` [Example 49, (S)-6-(6-methoxy-5-(4-methyl-1H-imidazol-1-yl)pyridin-2-yl)-4-methyl-N-(1-(3-(trifluoromethyl)phenyl)ethyl)pyridazin-3-amine] came in with an IC50 of 7 nM.

`COc1nc(-c2cc(C)c(N[C@@H](C)c3ccc(F)c(C)c3)nn2)ccc1-n1cnc(C)c1` [Example 51, (S)—N-(1-(4-fluoro-3-methylphenyl)ethyl)-6-(6-methoxy-5-(4-methyl-1H-imidazol-1-yl)pyridin-2-yl)-4-methylpyridazin-3-amine] showed an IC50 of 8.3 nM.

Turning to `COc1nc(-c2cc(C)c(N[C@@H](C)c3cc(F)c(F)c(F)c3)nn2)ccc1-n1cnc(C)c1` [Example 52, (S)-6-(6-methoxy-5-(4-methyl-1H-imidazol-1-yl)pyridin-2-yl)-4-methyl-N-(1-(3,4,5-trifluorophenyl)ethyl)pyridazin-3-amine], it took 5 nM to reach half-maximal inhibition (IC50).

`COc1nc(-c2cc(C)c(N[C@@H](C)c3ccc(F)c(C(F)(F)F)c3)nn2)ccc1-n1cnc(C)c1` [Example 53, (S)—N-(1-(4-fluoro-3-(trifluoromethyl)phenyl)ethyl)-6-(6-methoxy-5-(4-methyl-1H-imidazol-1-yl)pyridin-2-yl)-4-methylpyridazin-3-amine] had an IC50 of 9.8 nM.

Consider `COc1nc(-c2cc(C)c(N[C@@H](C)c3ccccc3C)nn2)ccc1-n1cnc(C)c1` [Example 55, (S)-6-(6-methoxy-5-(4-methyl-1H-imidazol-1-yl)pyridin-2-yl)-4-methyl-N-(1-(o-tolyl)ethyl)pyridazin-3-amine], for which the IC50 was 3.3 nM.

Consider `COc1nc(-c2cc(C)c(N[C@@H](C)c3ccccc3C(F)(F)F)nn2)ccc1-n1cnc(C)c1` [Example 56, (S)-6-(6-methoxy-5-(4-methyl-1H-imidazol-1-yl)pyridin-2-yl)-4-methyl-N-(1-(2-(trifluoromethyl)phenyl)ethyl)pyridazin-3-amine], for which 3 nM corresponded to half-maximal inhibition (IC50).

Consider `COc1nc(-c2cc(C)c(N[C@H](c3ccc(F)cc3)C(C)C)nn2)ccc1-n1cnc(C)c1` [Example 57, (S)—N-(1-(4-fluorophenyl)-2-methylpropyl)-6-(6-methoxy-5-(4-methyl-1H-imidazol-1-yl)pyridin-2-yl)-4-methylpyridazin-3-amine], for which it took 4 nM to reach half-maximal inhibition (IC50).

In turn, `COc1nc(-c2cc(C)c(N[C@@H](C)C3CCCCC3)nn2)ccc1-n1cnc(C)c1` [Example 58, (S)—N-(1-cyclohexylethyl)-6-(6-methoxy-5-(4-methyl-1H-imidazol-1-yl)pyridin-2-yl)-4-methylpyridazin-3-amine] registered an IC50 of 12 nM.

The compound `COc1nc(-c2cc(C)c(N[C@@H](C)c3ccncc3)nn2)ccc1-n1cnc(C)c1` [Example 59, (S)-6-(6-methoxy-5-(4-methyl-1H-imidazol-1-yl)pyridin-2-yl)-4-methyl-N-(1-(pyridin-4-yl)ethyl)pyridazin-3-amine] yielded an IC50 of 778 nM.

The compound `COc1nc(-c2cc(C)c(NC3(c4ccc(F)cc4)CC3)nn2)ccc1-n1cnc(C)c1` [Example 60, N-(1-(4-fluorophenyl)cyclopropyl)-6-(6-methoxy-5-(4-methyl-1H-imidazol-1-yl)pyridin-2-yl)-4-methylpyridazin-3-amine] showed an IC50 of 12 nM.

`COc1nc(-c2cc(C)c(N[C@@H](C)C(C)C)nn2)ccc1-n1cnc(C)c1` [Example 61, (S)-6-(6-methoxy-5-(4-methyl-1H-imidazol-1-yl)pyridin-2-yl)-4-methyl-N-(3-methylbutan-2-yl)pyridazin-3-amine] gave an IC50 of 27 nM.

The compound `COC[C@H](C)Nc1nnc(-c2ccc(-n3cnc(C)c3)c(OC)n2)cc1C` [Example 62, (S)-6-(6-methoxy-5-(4-methyl-1H-imidazol-1-yl)pyridin-2-yl)-N-(1-methoxypropan-2-yl)-4-methylpyridazin-3-amine] gave an IC50 of 2160 nM.

As for `CC[C@H](C)Nc1nnc(-c2ccc(-n3cnc(C)c3)c(OC)n2)cc1C` [Example 63, (S)—N-(sec-butyl)-6-(6-methoxy-5-(4-methyl-1H-imidazol-1-yl)pyridin-2-yl)-4-methylpyridazin-3-amine], the IC50 was 79 nM.

`COc1nc(-c2cc(C)c(N[C@@H](C)CO)nn2)ccc1-n1cnc(C)c1` [Example 64, (S)-2-((6-(6-methoxy-5-(4-methyl-1H-imidazol-1-yl)pyridin-2-yl)-4-methylpyridazin-3-yl)amino) propan-1-ol] showed an IC50 of more than 10000 nM.

`COc1nc(-c2cc(C)c(N[C@H](C)C(C)C)nn2)ccc1-n1cnc(C)c1` [Example 66, (R)-6-(6-methoxy-5-(4-methyl-1H-imidazol-1-yl)pyridin-2-yl)-4-methyl-N-(3-methylbutan-2-yl)pyridazin-3-amine] registered an IC50 of 53 nM.

For `COc1nc(-c2cc(C)c(N[C@@H](C)c3ccccn3)nn2)ccc1-n1cnc(C)c1` [Example 67, (S)-6-(6-methoxy-5-(4-methyl-1H-imidazol-1-yl)pyridin-2-yl)-4-methyl-N-(1-(pyridin-2-yl)ethyl)pyridazin-3-amine], the IC50 was 95 nM.

As to `COc1nc(-c2cc(C)c(N[C@H](C)c3ccccc3)nn2)ccc1-n1cnc(C)c1` [Example 68, (R)-6-(6-methoxy-5-(4-methyl-1H-imidazol-1-yl)pyridin-2-yl)-4-methyl-N-(1-phenylethyl)pyridazin-3-amine], 80 nM corresponded to half-maximal inhibition (IC50).

The compound `COc1nc(-c2cc(C)c(N[C@@H](C)c3ccc(F)cc3C)nn2)ccc1-n1cnc(C)c1` [Example 69, (S)—N-(1-(4-fluoro-2-methylphenyl)ethyl)-6-(6-methoxy-5-(4-methyl-1H-imidazol-1-yl)pyridin-2-yl)-4-methylpyridazin-3-amine] showed a half-maximal inhibitory concentration (IC50) of 4.5 nM.

`COc1nc(-c2cc(C)c(NC3CC3)nn2)ccc1-n1cnc(C)c1` [Example 70, N-cyclopropyl-6-(6-methoxy-5-(4-methyl-1H-imidazol-1-yl)pyridin-2-yl)-4-methylpyridazin-3-amine]: half-maximal inhibition (IC50) required 425 nM.

Compound `COc1nc(-c2cc(C)c(N[C@@H](CO)c3ccc(F)cc3)nn2)ccc1-n1cnc(C)c1` [Example 71, (R)-2-(4-fluorophenyl)-2-((6-(6-methoxy-5-(4-methyl-1H-imidazol-1-yl)pyridin-2-yl)-4-methylpyridazin-3-yl)amino)ethanol] displayed an IC50 of 22 nM.

In turn, `COc1nc(-c2cc(C)c(N[C@@H](C)c3c(F)cc(F)cc3F)nn2)ccc1-n1cnc(C)c1` [Example 75, (S)-6-(6-methoxy-5-(4-methyl-1H-imidazol-1-yl)pyridin-2-yl)-4-methyl-N-(1-(2,4,6-trifluorophenyl)ethyl)pyridazin-3-amine] showed an IC50 of 3.5 nM.

`COc1nc(-c2cc(C)c(N[C@@H](C)C(C)(C)C)nn2)ccc1-n1cnc(C)c1` [Example 76, (S)—N-(3,3-dimethylbutan-2-yl)-6-(6-methoxy-5-(4-methyl-1H-imidazol-1-yl)pyridin-2-yl)-4-methyl pyridazin-3-amine] displayed an IC50 of 29 nM.

Compound `COc1nc(-c2cc(C)c(N[C@@H](C)c3ccc(C#N)cc3)nn2)ccc1-n1cnc(C)c1` [Example 77, (S)-4-(1-((6-(6-methoxy-5-(4-methyl-1H-imidazol-1-yl)pyridin-2-yl)-4-methylpyridazin-3-yl)amino)ethyl)benzonitrile] had an IC50 of 27 nM.

Compound `COc1nc(-c2cc(C)c(NC3CCCC3)nn2)ccc1-n1cnc(C)c1` [Example 78, N-cyclopentyl-6-(6-methoxy-5-(4-methyl-1H-imidazol-1-yl)pyridin-2-yl)-4-methylpyridazin-3-amine] gave an IC50 of 61 nM.

On to `CCC[C@H](Nc1nnc(-c2ccc(-n3cnc(C)c3)c(OC)n2)cc1C)c1ccc(F)cc1` [Example 79, (S)—N-(1-(4-fluorophenyl)butyl)-6-(6-methoxy-5-(4-methyl-1H-imidazol-1-yl)pyridin-2-yl)-4-methylpyridazin-3-amine], for which the IC50 was determined as 7.5 nM.

For `COc1nc(-c2cc(C)c(N[C@H](CO)c3ccc(F)cc3)nn2)ccc1-n1cnc(C)c1` [Example 80, (S)-2-(4-fluorophenyl)-2-((6-(6-methoxy-5-(4-methyl-1H-imidazol-1-yl)pyridin-2-yl)-4-methylpyridazin-3-yl)amino)ethanol], the IC50 amounted to 1100 nM.

Compound `COc1nc(-c2cc(C)c(NC3CCCCC3)nn2)ccc1-n1cnc(C)c1` [Example 81, N-cyclohexyl-6-(6-methoxy-5-(4-methyl-1H-imidazol-1-yl)pyridin-2-yl)-4-methylpyridazin-3-amine] had an IC50 of 27 nM.
